Measured values as given in patent US12624066B2, “Inhibitors of coronavirus protease” (SUNSHINE BIOPHARMA INC., priority 2020, dated 2026).
Square brackets hold non-standard residues; d marks the D form. Peptide text beside a SMILES is read from it.

Target: SARS-CoV-2-PLpro enzyme (Severe acute respiratory syndrome coronavirus 2, UniProt P0DTD1)
Assay: SARS-CoV-2-PLpro enzyme inhibition assay
Type: biochemical
Settings: read-out: Percent inhibition
Protocol: The inhibition assay was carried out as follows. 1 μM SARS-CoV-2-PLpro enzyme was incubated with 25 μM Arg-Leu-Arg-Gly-Gly-AMC substrate and 100 μM of the inhibitor peptide tested, in reaction buffer (100 mM NaCl, 50 mM HEPES [pH=7.5], 0.01 mg/mL bovine serum albumin, and 5 mM DTT) to a final volume of 50 μL. A control reaction with no inhibitory peptide was included and serves as the basis for “no inhibition”. Each reaction was carried in triplicate. The percentage inhibition was calculated by […].

Row | Compound | inhibition at 100 µM
1 | CC(C)C[C@@H](NC(=O)[C@@H](N)CCCNC(=N)N)C(=O)N[C@@H](CCCNC(=N)N)C(=O)NCC(=O)NCC(=O)O [Arg - Leu - Arg - Gly - Gly] | 10 to 15%
2 | CC(C)C[C@@H](NC(=O)[C@@H](N)CCCNC(=N)N)C(=O)N[C@@H](CCCCN)C(=O)NCC(=O)NCC(=O)O [Arg - Leu - Lys - Gly - Gly] (H-R[dL]KGG-OH) | 5 to 10%
3 | CC(C)C[C@@H](NC(=O)[C@@H](N)CCC(=O)O)C(=O)N[C@@H](CC(N)=O)C(=O)NCC(=O)NCC(=O)O [Glu - Leu - Asn - Gly - Gly] (H-E[dL]NGG-OH) | 0%
4 | CC(C)C[C@@H](NC(=O)[C@@H](N)CO)C(=O)N[C@@H](CCCCN)C(=O)NCC(=O)NCC(=O)O [Ser - Leu - Lys - Gly - Gly] (H-S[dL]KGG-OH) | 0%
